Laboratory results taken from the supplement of paper PMC13380429.

Experiments:
Conditions in all cases: 72 h
HepG2 [1] = assay: relative viability EC50 (midpoint between 100% and the lowest measured viability); higher = less toxic
U2OS [2] = assay: as above
Calu-3 [3] = assay: as above
Caco-2 [4] = assay: cell viability relative to DMSO; higher = less toxic
HepG2 [5] = assay: as above
Vero E6 [6] = assay: as above
U2OS [7] = assay: as above
Calu-3 [8] = assay: as above
Caco-2 [9] = assay: drug sensitivity score (DSS) for viability; higher = more toxic; extreme values may be limits of the assay
HepG2 [10] = assay: as above
Vero E6 [11] = assay: as above
U2OS [12] = assay: as above
Calu-3 [13] = assay: as above
Caco-2 [14] = assay: relative viability EC50 (midpoint between 100% and the lowest measured viability); higher = less toxic
Vero E6 [15] = assay: as above

SMILES | relative viability EC50 (HepG2 [1]) [µM] | relative viability EC50 (U2OS [2]) [µM] | relative viability EC50 (Calu-3 [3]) [µM] | cell viability (Caco-2 [4]; 1 nM) [%] | cell viability (Caco-2 [4]; 10 nM) [%] | cell viability (Caco-2 [4]; 100 nM) [%] | cell viability (Caco-2 [4]; 1000 nM) [%] | cell viability (Caco-2 [4]; 10000 nM) [%] | cell viability (HepG2 [5]; 1 nM) [%] | cell viability (HepG2 [5]; 10 nM) [%] | cell viability (HepG2 [5]; 100 nM) [%] | cell viability (HepG2 [5]; 1000 nM) [%] | cell viability (HepG2 [5]; 10000 nM) [%] | cell viability (Vero E6 [6]; 1 nM) [%] | cell viability (Vero E6 [6]; 10 nM) [%] | cell viability (Vero E6 [6]; 100 nM) [%] | cell viability (Vero E6 [6]; 1000 nM) [%] | cell viability (Vero E6 [6]; 10000 nM) [%] | cell viability (U2OS [7]; 1 nM) [%] | cell viability (U2OS [7]; 10 nM) [%] | cell viability (U2OS [7]; 100 nM) [%] | cell viability (U2OS [7]; 1000 nM) [%] | cell viability (U2OS [7]; 10000 nM) [%] | cell viability (Calu-3 [8]; 1 nM) [%] | cell viability (Calu-3 [8]; 10 nM) [%] | cell viability (Calu-3 [8]; 100 nM) [%] | cell viability (Calu-3 [8]; 1000 nM) [%] | cell viability (Calu-3 [8]; 10000 nM) [%] | drug sensitivity score (Caco-2 [9]) | drug sensitivity score (HepG2 [10]) | drug sensitivity score (Vero E6 [11]) | drug sensitivity score (U2OS [12]) | drug sensitivity score (Calu-3 [13]) | relative viability EC50 (Caco-2 [14]) [µM] | relative viability EC50 (Vero E6 [15]) [µM]
O=C(Nc1c[nH]nc1-c1nc2ccc(CN3CCOCC3)cc2[nH]1)NC1CC1 [AT-9283] | 0.93 | 1.66 | 0.461 | 87.1 | 102 | 90.9 | 90.7 | 71.8 | 96.6 | 97.7 | 82.4 | 57.3 | 5.8 | 99.9 | 93.1 | 90.4 | 86.7 | 66.7 | 98.2 | 97.7 | 80.6 | 74.7 | 1.1 | 107 | 96.9 | 85.9 | 65.4 | 43.6 | 2 | 10.8 | 3.1 | 8.8 | 8 |  | 
c1cn2cc(-c3ccc4cn[nH]c4c3)nc(Nc3ccc(N4CCOCC4)cc3)c2n1 [GS-9973] | > 10 | > 10 | > 10 | 108 | 108 | 98.3 | 99.7 | 91.4 | 105 | 103 | 100 | 93.8 | 92.5 |  |  |  |  |  | 94.1 | 101 | 98.2 | 98 | 92.2 | 95.2 | 103 | 90 | 94.3 | 92.7 | 0 | 0 |  | 0 | 0 | > 10 | 
CCCn1c(=O)c2nc(C34CC5CC(CC3C5)C4)[nH]c2n(CCC)c1=O [KW-3902] | > 10 | > 10 | > 10 | 95.9 | 94.4 | 101 | 95.1 | 82.5 | 94.2 | 92.9 | 98.2 | 101 | 91.6 |  |  |  |  |  | 98.8 | 96.5 | 100 | 99.5 | 102 | 83.8 | 89.3 | 92.6 | 96.6 | 100 | 0.9 | 0 |  | 0 | 0 | > 10 | 
CCCS(=O)(=O)Nc1ccc(F)c(C(=O)c2c[nH]c3ncc(Cl)cc23)c1F [PLX4720] | 1.82 | > 10 | > 10 | 96.8 | 96.9 | 93.6 | 91 | 73.3 | 104 | 94.6 | 104 | 90.9 | 49.5 | 106 | 100 | 100 | 106 | 82.5 | 102 | 95.8 | 97.1 | 100 | 101 | 93.4 | 89.8 | 100 | 106 | 106 | 1.7 | 4.2 | 0.2 | 0 | 0 |  | > 10
CC(=O)O[C@]1(C(C)=O)CC[C@H]2[C@@H]3CCC4=CC(=O)CCC4=C3[C@@H](c3ccc(N(C)C)cc3)C[C@@]21C [Ulipristal acetate] | > 10 | > 10 | > 10 | 94.7 | 94.7 | 98.3 | 97.9 | 67.8 | 110 | 110 | 103 | 97.9 | 104 | 104 | 98.2 | 99.3 | 97 | 98.3 | 103 | 103 | 99.1 | 99.6 | 94.9 | 105 | 106 | 97.1 | 104 | 110 | 1.8 | 0 | 0 | 0 | 0 |  | > 10
C[S+](CC[C@H](N)C(=O)O)C[C@H]1O[C@@H](n2cnc3c(N)ncnc32)[C@H](O)[C@@H]1O (some centres undefined) [ademetionine] | > 10 | > 10 | > 10 |  |  |  |  |  | 94.7 | 105 | 89.9 | 91.4 | 91.3 | 99.8 | 104 | 103 | 108 | 92.2 | 100 | 97.9 | 98.5 | 98 | 106 | 106 | 106 | 105 | 99.8 | 96.3 |  | 0 | 0 | 0 | 0 |  | > 10
CN1[C@H]2C[C@H](OC(=O)[C@H](CO)c3ccccc3)C[C@@H]1[C@@H](O)C2 [anisodamine] | > 10 | > 10 | > 10 | 107 | 108 | 101 | 115 | 99.2 | 104 | 111 | 79.8 | 104 | 102 |  |  |  |  |  | 98 | 105 | 98.8 | 101 | 97.6 | 101 | 103 | 105 | 91.8 | 108 | 0 | 0 |  | 0 | 0 | > 10 | 
CCC1(c2c[nH]cn2)Cc2ccccc2C1 [atipamezole] | > 10 |  | > 10 | 104 | 115 | 104 | 100 | 108 | 102 | 95.5 | 111 | 100 | 109 |  |  |  |  |  |  |  |  |  |  | 96.9 | 101 | 94.9 | 106 | 93.5 | 0 | 0 |  |  | 0 | > 10 | 
